Where two headings read alike, the source gives them in different places.
What was measured:
BT-549 cells = assay: Resazurin-based cell viability assay, monotherapy drug screen; parameters: species or system human; AUC: scale not given here; conditions: BT-549; for AUC: area under the dose response curve, 24 h; for GRmax: drug efficacy at highest tested dose (<0 cytotoxic, 0 cytostatic, >0 partial growth inhibition)
Procedure: (§1) Eighteen pharmaceutical compounds were purchased from Selleckchem. […] The stock solutions were stored at -80°C. […] New drug plates were prepared for each drug screen.
(§2) To determine the optimal seeding density and ensure that the cells were in the exponential phase during the duration of the experiment (approx. 52h), each cell line (BT-549, CAL-148, HCC1806, HCC38, HCC70, MCF-10A, MCF-7, MDA-MB-436, MDA-MB-453, and MDA-MB-468) was seeded at different concentrations (1000 to 16000 cells) per 96-well, as previously described. Cell viability was measured daily (day 0 [plating day] to day 4) using 0.2 mg/ml resazurin solution prepared from resazurin sodium salt (Fisher Scientific) dissolved in sterile 1xPBS (ThermoFisher Scientific). Before use, the resazurin solution was brought to RT before 10 µl (10% of cell medium volume) was added to each 96-well and incubated for 4h at 37°C. The absorbance was measured with a 560 nm excitation filter and a 615 nm emission filter in a Wallac 1420 VICTOR2™ microplate reader (Perkin Elmer). The slope of the curve was used to determine the optimal seeding density, i.e., the highest seeding density with linear growth between days 1 and 3.

HCC1806 cells = assay: as above; parameters: species or system human; AUC: scale not given here; conditions: HCC1806; for AUC: area under the dose response curve, 24 h; for GRmax: drug efficacy at highest tested dose (<0 cytotoxic, 0 cytostatic, >0 partial growth inhibition)
Procedure: as §1, §2

HCC38 cells = assay: as above; parameters: species or system human; AUC: scale not given here; conditions: HCC38; for AUC: area under the dose response curve, 24 h; for GRmax: drug efficacy at highest tested dose (<0 cytotoxic, 0 cytostatic, >0 partial growth inhibition)
Procedure: as §1, §2

HCC70 cells = assay: as above; parameters: species or system human; AUC: scale not given here; conditions: HCC70; for AUC: area under the dose response curve, 24 h; for GRmax: drug efficacy at highest tested dose (<0 cytotoxic, 0 cytostatic, >0 partial growth inhibition)
Procedure: as §1, §2

MCF-10A cells = assay: as above; parameters: species or system human; AUC: scale not given here; conditions: for AUC: area under the dose response curve, 24 h
Procedure: as §1, §2

MCF-7 cells = assay: as above; parameters: species or system human; AUC: scale not given here; conditions: MCF-7; for AUC: area under the dose response curve, 24 h; for GRmax: drug efficacy at highest tested dose (<0 cytotoxic, 0 cytostatic, >0 partial growth inhibition)
Procedure: as §1, §2

MDA-MB-436 cells = assay: as above; parameters: species or system human; AUC: scale not given here; conditions: MDA-MB-436; for AUC: area under the dose response curve, 24 h; for GRmax: drug efficacy at highest tested dose (<0 cytotoxic, 0 cytostatic, >0 partial growth inhibition)
Procedure: as §1, §2

MDA-MB-453 cells = assay: as above; parameters: species or system human; AUC: scale not given here; conditions: MDA-MB-453; for AUC: area under the dose response curve, 24 h
Procedure: as §1, §2

MDA-MB-468 cells = assay: as above; parameters: species or system human; AUC: scale not given here; conditions: MDA-MB-468; for AUC: area under the dose response curve, 24 h
Procedure: as §1, §2

[1] = test system: eight TNBC cell lines (BT-549, CAL-148, HCC1806, HCC38, HCC70, MDA-MB-436, MDA-MB-453, MDA-MB-468); assay: Monotherapy drug screen, mean across the TNBC cell lines; conditions: 24 h; for area under the dose response curve (AUC), mean ± SD: TNBC cell lines
Procedure: Eighteen pharmaceutical compounds were purchased from Selleckchem (Supplementary Table 2). Stock solutions were prepared using dimethyl sulfoxide (DMSO; Merck), physiological saline (sodium chloride 0.9%) or Milli-Q water, and stored at −80 °C. […] Matched concentration solvent vehicle controls were used for each drug concentration. The drug screens were performed in triplicate and repeated three (monotherapy) or two (combination therapy) times (Fig. 7).
The optimal seeding density per 96-well was determined for each cell line as previously described. The cells were seeded at a density of 4.0 × 10^3 to 7.5 × 10^3 (cell type dependent) in 96-well clear, flat-bottom microplates (Corning Life Sciences, Sigma-Aldrich) in 100 µl complete culture medium (Supplementary Table 1) and cultured for 24 h. Cell viability was determined using the resazurin assay in untreated cells at the time of plating (t = 0) and treated cells after 24 h drug treatment (Fig. 7). Percentage cell viability was calculated as 100% × (absorbance of treated cells – absorbance of background controls) / (absorbance of matched solvent vehicle controls – absorbance of background controls). The area under the curve (AUC), half-maximal inhibitory concentration (IC50), drug potency (GR50), and drug efficacy (GRmax) were determined for each compound using the GRmetrics (version 1.20.0) package in R. The monotherapy data were evaluated with the IDACombo (version 1.0.2) package in R to predict potential drug combinations (Table 1). SynergyFinder (version 3.2.10) package in R was used to identify synergistic drug combinations.
Eighteen pharmaceutical compounds were purchased from Selleckchem. […] The solubility of the compound was enhanced by pre-heating the solvent (lukewarm), if necessary. […] The stock solutions were stored at -80°C. […] Matched concentration solvent vehicle controls were used for each drug concentration. The drug screens were performed in triplicate and repeated three times for the monotherapies and twice for the combination treatments. The drug(s) and corresponding controls were plated in 96-well PCR plates (VWR) and stored at -20°C (Fig. 6). The drug plates were thawed, centrifuged (3000 rpm for 30s), and acclimatized to RT before the drugs were added to the cells. New drug plates were prepared for each drug screen.
The cells were seeded at a density of 4.0x10^3 to 7.5x10^3 (cell type-dependent) in 96-well clear, flat-bottom microplates (Corning Life Sciences, Sigma-Aldrich) in 100 µl culture medium supplemented with 10% FBS and cultured for 24h. Cell viability was determined using the resazurin assay after 24h drug treatment (Fig. 6). Percentage cell viability was calculated as 100% × (absorbance of treated cells – absorbance of background controls) / (absorbance of matched solvent vehicle controls – absorbance of background controls). Normalized growth rate inhibition (GR) was assessed using the absorbance of untreated cells after the time of plating (t = 0). […] For combination treatment, the monotherapy data were evaluated with the IDACombo (version 1.0.2)[20] package in R to predict potential drug combinations (Table 1). SynergyFinder (version 3.2.10)[21] package in R was used to identify synergistic drug combinations.

[2] = 24 h drug treatment, read-out: IC50
[3] = growth rate inhibition concentration at GR(c) = 0.5, 24 h, read-out: GR50 (the source's name)
[4] = drug efficacy at highest tested dose (<0 cytotoxic, 0 cytostatic, >0 partial growth inhibition)
[5] = Homo sapiens, growth rate inhibition concentration at GR(c) = 0.5, 24 h, read-out: GR50 (the source's name)
[6] = Homo sapiens, 24 h drug treatment, read-out: IC50
[7] = Homo sapiens, MCF7, growth rate inhibition concentration at GR(c) = 0.5, 24 h, read-out: GR50 (the source's name)

`N.N.[Cl][Pt][Cl]` [Cisplatin] was tested, and the IC50 (BT-549 cells; [2]) was 53 nM, the AUC (BT-549 cells) was 0.57 and the GRmax (BT-549 cells) was −0.16. It also gave an IC50 (BT-549 cells; [3]) of 35 nM, an IC50 (HCC1806 cells; [2]) of 48 nM and an AUC (HCC1806 cells) of 0.48. It also gave a GRmax (HCC1806 cells) of −0.72, an IC50 (HCC1806 cells; [3]) of 42 nM and an IC50 (HCC38 cells; [2]) of 30 nM. For the same compound, the AUC (HCC38 cells) was 0.45, the GRmax (HCC38 cells) was −0.67 and the IC50 (HCC38 cells; [3]) was 19 nM. For the same compound, the IC50 (HCC70 cells; [2]) was 22 nM, the AUC (HCC70 cells) was 0.37 and the GRmax (HCC70 cells) was −0.89. It also gave an IC50 (HCC70 cells; [3]) of 15 nM, an IC50 (MCF-10A cells; [2]) of 27 nM and an AUC (MCF-10A cells) of 0.42. It also gave a GRmax (MCF-10A cells; [4]) of −0.32, an IC50 (MCF-10A cells; [3]) of 28 nM and an IC50 (MCF-7 cells; [2]) of 160 nM. For the same compound, the AUC (MCF-7 cells) was 0.66, the GRmax (MCF-7 cells) was −0.96 and the IC50 (MCF-7 cells; [3]) was 15 nM. It also gave an IC50 (MDA-MB-436 cells; [2]) of 64 nM, an AUC (MDA-MB-436 cells) of 0.62 and a GRmax (MDA-MB-436 cells) of 0.17. For the same compound, the IC50 (MDA-MB-436 cells; [3]) was 43 nM, the IC50 (MDA-MB-453 cells; [2]) was 240 nM and the AUC (MDA-MB-453 cells) was 0.75. The GRmax (MDA-MB-453 cells; [4]) was 0.25, the IC50 (MDA-MB-453 cells; [3]) was 95 nM and the IC50 (MDA-MB-468 cells; [2]) was 15 nM. It also gave an AUC (MDA-MB-468 cells) of 0.37, a GRmax (MDA-MB-468 cells; [4]) of −0.46 and an IC50 (MDA-MB-468 cells; [3]) of 7.5 nM. For the same compound, the “area under the dose response curve (AUC), mean ± SD” value (“area … mean ± SD” for short) [1] was 0.51 ± 0.10.
In the case of `CC(C)C[C@H](NC(=O)CNC(=O)c1cc(Cl)ccc1Cl)B1OC(=O)C(CC(=O)O)(CC(=O)O)O1` [MLN 9708, MLN-9708], the AUC (BT-549 cells) is reported as 0.80, the GRmax (BT-549 cells) is reported as 0.43 and the IC50 (BT-549 cells; [5]) is reported as 840 nM. The AUC (HCC1806 cells) was 0.79, the GRmax (HCC1806 cells) was 0.47 and the IC50 (HCC1806 cells; [5]) was 4300 nM. It also gave an AUC (HCC38 cells) of 0.59, a GRmax (HCC38 cells) of −0.99 and an IC50 (HCC38 cells; [6]) of 130 nM. The IC50 (HCC38 cells; [5]) was 69 nM, the AUC (HCC70 cells) was 0.82 and the GRmax (HCC70 cells) was −0.34. The IC50 (HCC70 cells; [6]) was 4800 nM, the IC50 (HCC70 cells; [5]) was 1200 nM and the IC50 (MCF-10A cells; [6]) was 380 nM. It also gave an IC50 (MCF-10A cells; [5]) of 70 nM, an AUC (MCF-10A cells) of 0.72 and an IC50 (MCF-7 cells; [7]) of 270 nM. It also gave an AUC (MCF-7 cells) of 0.87, a GRmax (MCF-7 cells) of −0.48 and an IC50 (MDA-MB-436 cells; [5]) of 110 nM. The AUC (MDA-MB-436 cells) was 0.86, the GRmax (MDA-MB-436 cells) was −0.82 and the IC50 (MDA-MB-453 cells; [5]) was 1800 nM. The AUC (MDA-MB-453 cells) was 0.88, the IC50 (MDA-MB-468 cells; [6]) was 800 nM and the IC50 (MDA-MB-468 cells; [5]) was 100 nM. The AUC (MDA-MB-468 cells) was 0.72 and the “area … mean ± SD” value [1] was 0.79 ± 0.10.
With `CC(C)C[C@H](NC(=O)[C@@H](NC(=O)c1cccc(-c2ccccc2)n1)[C@@H](C)O)B(O)O` [Delanzomib] the AUC (BT-549 cells) was 0.73, the GRmax (BT-549 cells) was 0.48 and the AUC (HCC1806 cells) was 0.74. The GRmax (HCC1806 cells) was 0.50, the AUC (HCC38 cells) was 0.42 and the GRmax (HCC38 cells) was −0.97. The IC50 (HCC38 cells; [6]) was 12 nM, the IC50 (HCC38 cells; [5]) was 8.2 nM and the AUC (HCC70 cells) was 0.75. For the same compound, the GRmax (HCC70 cells) was −0.36, the IC50 (HCC70 cells; [6]) was 3300 nM and the IC50 (HCC70 cells; [5]) was 370 nM. The IC50 (MCF-10A cells; [6]) was 18 nM, the IC50 (MCF-10A cells; [5]) was 12 nM and the AUC (MCF-10A cells) was 0.62. For the same compound, the IC50 (MCF-7 cells; [7]) was 37 nM, the AUC (MCF-7 cells) was 0.77 and the GRmax (MCF-7 cells) was −0.28. For the same compound, the IC50 (MDA-MB-436 cells; [5]) was 29 nM, the AUC (MDA-MB-436 cells) was 0.79 and the GRmax (MDA-MB-436 cells) was −0.84. For the same compound, the IC50 (MDA-MB-453 cells; [5]) was 27 nM, the AUC (MDA-MB-453 cells) was 0.76 and the IC50 (MDA-MB-468 cells; [6]) was 77 nM. For the same compound, the IC50 (MDA-MB-468 cells; [5]) was 11 nM, the AUC (MDA-MB-468 cells) was 0.58 and the IC50 ([1]; Homo sapiens, read-out: GR50 (mean ± SD)) was 79 ± 130 nM. The “area … mean ± SD” value [1] was 0.69 ± 0.10.

Source: publication PMC10825133, “Repurposing proteasome inhibitors for improved treatment of triple-negative breast cancer” (Cell Death Discovery, 2024)
